Results: the supplement of paper PMC8617591

Key:
[1] = system: Mycobacterium tuberculosis Erdman (autoluminescent); test: total FIC50 (Loewe) at 50% inhibition, three-drug combination (log2); higher = more antagonistic
Procedure: (§1)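 DiaMOND equipotent three-drug combination dose responses (10 doses, 1.5- or 2-fold spacing, centred on IC90) against autoluminescent M. tuberculosis Erdman in 8 in vitro models. Read-out is OD600, or luminescence for the intracellular and dormancy models, normalised to untreated wells. Hill-fit Einf, AUC25 and GRinf are potency metrics; FIC50 and FIC90 are total Loewe fractional inhibitory concentrations as log2 (negative = synergy).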

[2] = system: Mycobacterium tuberculosis Erdman (autoluminescent); test: total FIC90 (Loewe) at 90% inhibition, three-drug combination (log2); higher = more antagonistic
Procedure: as §1

[3] = system: Mycobacterium tuberculosis Erdman (autoluminescent); test: Einf, fitted maximum growth inhibition of three-drug combination (fraction); higher = stronger maximal inhibition
Procedure: as §1

[4] = system: Mycobacterium tuberculosis Erdman (autoluminescent); test: AUC25, normalised area under dose response up to IC25 (three-drug combination) (fraction (0-1)); higher = more potent at low dose
Procedure: as §1

[5] = system: Mycobacterium tuberculosis Erdman (autoluminescent); test: GRinf, maximum normalised growth rate inhibition (three-drug combination) (unitless (-1 to 1)); higher = less effect (negative = killing)
Procedure: as §1

[6] = in vitro model: acidic pH 5.7, time point: constant (~7 days, model-specific)
[7] = in vitro model: acidic pH 5.7, time point: terminal (~4-5 doublings, model-specific)
[8] = in vitro model: butyrate, time point: constant (~7 days, model-specific)
[9] = in vitro model: butyrate, time point: terminal (~4-5 doublings, model-specific)
[10] = in vitro model: cholesterol 0.05 mM, time point: terminal (~4-5 doublings, model-specific)
[11] = in vitro model: cholesterol-high 0.2 mM, time point: constant (~7 days, model-specific)
[12] = in vitro model: cholesterol-high 0.2 mM, time point: terminal (~4-5 doublings, model-specific)
[13] = in vitro model: dormancy (butyrate + nitrate, low O2), time point: constant (~7 days, model-specific)
[14] = in vitro model: dormancy (butyrate + nitrate, low O2), time point: terminal (~4-5 doublings, model-specific)
[15] = in vitro model: standard 7H9 glycerol, time point: constant = terminal
[16] = in vitro model: valerate, time point: constant (~7 days, model-specific)
[17] = in vitro model: valerate, time point: terminal (~4-5 doublings, model-specific)
[18] = in vitro model: intracellular J774, time point: constant = terminal
[19] = in vitro model: cholesterol 0.05 mM, time point: constant (~7 days, model-specific)

COc1nc2ccc(Br)cc2cc1[C@@H](c1ccccc1)[C@@](O)(CCN(C)C)c1cccc2ccccc12 [bedaquiline] + NC(=O)c1cnccn1 [pyrazinamide] + CO[C@H]1/C=C/O[C@@]2(C)Oc3c(C)c(O)c4c(O)c(c(/C=N/N5CCN(C6CCCC6)CC5)c(O)c4c3C2=O)NC(=O)/C(C)=C\C=C\[C@H](C)[C@H](O)[C@@H](C)[C@@H](O)[C@@H](C)[C@H](OC(C)=O)[C@@H]1C [rifapentine]
total FIC50 [1, 6]: 0.212 | total FIC50 [1, 7]: 0.0918 | total FIC50 [1, 8]: 0.368 | total FIC50 [1, 9]: 0.608 | total FIC50 [1, 10]: 0.907 | total FIC50 [1, 11]: 0.688 | total FIC50 [1, 12]: 1.1 | total FIC50 [1, 13]: -0.395 | total FIC50 [1, 14]: 0.0969 | total FIC50 [1, 15]: -0.269 | total FIC50 [1, 16]: 0.992 | total FIC50 [1, 17]: 0.965 | total FIC90 [2, 7]: 0.167 | total FIC90 [2, 8]: 0.452 | total FIC90 [2, 9]: 0.896 | total FIC90 [2, 12]: 0.6 | total FIC90 [2, 13]: -0.492 | total FIC90 [2, 14]: -0.227 | total FIC90 [2, 18]: 0.111 | total FIC90 [2, 17]: 0.779 | Einf [3, 6]: 0.951 | Einf [3, 7]: 0.987 | Einf [3, 8]: 0.973 | Einf [3, 9]: 0.995 | Einf [3, 19]: 0.75 | Einf [3, 10]: 0.854 | Einf [3, 11]: 0.959 | Einf [3, 12]: 1 | Einf [3, 13]: 0.907 | Einf [3, 14]: 0.988 | Einf [3, 18]: 0.984 | Einf [3, 15]: 0.917 | Einf [3, 16]: 0.855 | Einf [3, 17]: 0.939 | AUC25 [4, 6]: 0.105 | AUC25 [4, 7]: 0.0905 | AUC25 [4, 8]: 0.109 | AUC25 [4, 9]: 0.0948 | AUC25 [4, 19]: 0.113 | AUC25 [4, 10]: 0.0882 | AUC25 [4, 11]: 0.0619 | AUC25 [4, 12]: 0.0597 | AUC25 [4, 13]: 0.0664 | AUC25 [4, 14]: 0.0515 | AUC25 [4, 15]: 0.0752 | AUC25 [4, 16]: 0.0676 | AUC25 [4, 17]: 0.0334 | GRinf [5, 6]: -0.444 | GRinf [5, 7]: -0.331 | GRinf [5, 8]: -0.292 | GRinf [5, 9]: -0.264 | GRinf [5, 19]: -0.416 | GRinf [5, 10]: -0.194 | GRinf [5, 11]: -0.405 | GRinf [5, 12]: -0.644 | GRinf [5, 13]: 0.181 | GRinf [5, 14]: -0.135 | GRinf [5, 18]: -0.419 | GRinf [5, 15]: 0.0581 | GRinf [5, 16]: -0.194 | GRinf [5, 17]: -0.182

COc1nc2ccc(Br)cc2cc1[C@@H](c1ccccc1)[C@@](O)(CCN(C)C)c1cccc2ccccc12 [bedaquiline] + NC(=O)c1cnccn1 [pyrazinamide] + CO[C@H]1/C=C/O[C@@]2(C)Oc3c(C)c(O)c4c(O)c(c(/C=N/N5CCN(C)CC5)c(O)c4c3C2=O)NC(=O)/C(C)=C\C=C\[C@H](C)[C@H](O)[C@@H](C)[C@@H](O)[C@@H](C)[C@H](OC(C)=O)[C@@H]1C [rifampicin]
total FIC50 [1, 6]: 0.337 | total FIC50 [1, 7]: 0.285 | total FIC50 [1, 8]: 0.454 | total FIC50 [1, 9]: 0.529 | total FIC50 [1, 10]: 1.1 | total FIC50 [1, 11]: 0.834 | total FIC50 [1, 12]: 1.34 | total FIC50 [1, 13]: -0.454 | total FIC50 [1, 14]: -0.149 | total FIC50 [1, 15]: 0.401 | total FIC50 [1, 16]: 0.905 | total FIC50 [1, 17]: 0.857 | total FIC90 [2, 7]: -0.207 | total FIC90 [2, 8]: 0.281 | total FIC90 [2, 9]: 0.948 | total FIC90 [2, 12]: 0.74 | total FIC90 [2, 13]: -0.722 | total FIC90 [2, 14]: -0.476 | total FIC90 [2, 18]: 0.24 | total FIC90 [2, 17]: 0.584 | Einf [3, 6]: 0.901 | Einf [3, 7]: 0.981 | Einf [3, 8]: 0.967 | Einf [3, 9]: 0.993 | Einf [3, 19]: 0.776 | Einf [3, 10]: 0.929 | Einf [3, 11]: 0.933 | Einf [3, 12]: 1 | Einf [3, 13]: 0.914 | Einf [3, 14]: 0.984 | Einf [3, 18]: 0.999 | Einf [3, 15]: 0.913 | Einf [3, 16]: 0.839 | Einf [3, 17]: 0.935 | AUC25 [4, 6]: 0.0834 | AUC25 [4, 7]: 0.0711 | AUC25 [4, 8]: 0.118 | AUC25 [4, 9]: 0.11 | AUC25 [4, 19]: 0.102 | AUC25 [4, 10]: 0.0832 | AUC25 [4, 11]: 0.0476 | AUC25 [4, 12]: 0.0598 | AUC25 [4, 13]: 0.0673 | AUC25 [4, 14]: 0.0465 | AUC25 [4, 15]: 0.0766 | AUC25 [4, 16]: 0.0558 | AUC25 [4, 17]: 0.032 | GRinf [5, 6]: -0.315 | GRinf [5, 7]: -0.241 | GRinf [5, 8]: -0.45 | GRinf [5, 9]: -0.729 | GRinf [5, 19]: -0.214 | GRinf [5, 10]: -0.267 | GRinf [5, 11]: -0.352 | GRinf [5, 12]: -0.624 | GRinf [5, 13]: 0.179 | GRinf [5, 14]: -0.139 | GRinf [5, 18]: -0.44 | GRinf [5, 15]: 0.0332 | GRinf [5, 16]: 0.0298 | GRinf [5, 17]: 0.00447

COc1nc2ccc(Br)cc2cc1[C@@H](c1ccccc1)[C@@](O)(CCN(C)C)c1cccc2ccccc12 [bedaquiline] + NNC(=O)c1ccncc1 [isoniazid] + CC(=O)NC[C@H]1CN(c2ccc(N3CCOCC3)c(F)c2)C(=O)O1 [linezolid]
total FIC50 [1, 6]: 0.42 | total FIC50 [1, 7]: 0.426 | total FIC50 [1, 8]: 0.739 | total FIC50 [1, 9]: 0.794 | total FIC50 [1, 19]: 0.27 | total FIC50 [1, 10]: 4.34 | total FIC50 [1, 11]: 0.506 | total FIC50 [1, 12]: 0.549 | total FIC50 [1, 13]: 0.921 | total FIC50 [1, 14]: 0.777 | total FIC50 [1, 15]: 0.0514 | total FIC50 [1, 16]: 0.58 | total FIC50 [1, 17]: 0.894 | total FIC90 [2, 7]: 0.522 | total FIC90 [2, 8]: 1.08 | total FIC90 [2, 9]: 0.944 | total FIC90 [2, 10]: 0.413 | total FIC90 [2, 11]: 1.92 | total FIC90 [2, 12]: 0.793 | total FIC90 [2, 13]: 0.532 | total FIC90 [2, 14]: 0.255 | total FIC90 [2, 18]: 0.82 | total FIC90 [2, 15]: -0.28 | total FIC90 [2, 16]: 0.911 | total FIC90 [2, 17]: 0.84 | Einf [3, 6]: 0.912 | Einf [3, 7]: 0.977 | Einf [3, 8]: 0.917 | Einf [3, 9]: 0.962 | Einf [3, 19]: 0.735 | Einf [3, 10]: 0.945 | Einf [3, 11]: 0.955 | Einf [3, 12]: 1 | Einf [3, 13]: 0.93 | Einf [3, 14]: 0.989 | Einf [3, 18]: 0.898 | Einf [3, 15]: 0.957 | Einf [3, 16]: 0.928 | Einf [3, 17]: 0.959 | AUC25 [4, 6]: 0.106 | AUC25 [4, 7]: 0.099 | AUC25 [4, 8]: 0.0832 | AUC25 [4, 9]: 0.0647 | AUC25 [4, 19]: 0.139 | AUC25 [4, 10]: 0.147 | AUC25 [4, 11]: 0.114 | AUC25 [4, 12]: 0.0961 | AUC25 [4, 13]: 0.0688 | AUC25 [4, 14]: 0.0346 | AUC25 [4, 15]: 0.0715 | AUC25 [4, 16]: 0.107 | AUC25 [4, 17]: 0.0588 | GRinf [5, 6]: -0.504 | GRinf [5, 7]: -0.207 | GRinf [5, 8]: -0.00837 | GRinf [5, 9]: -0.0285 | GRinf [5, 19]: -0.291 | GRinf [5, 10]: -0.463 | GRinf [5, 11]: -0.63 | GRinf [5, 12]: -0.702 | GRinf [5, 13]: 0.215 | GRinf [5, 14]: -0.127 | GRinf [5, 18]: -0.0256 | GRinf [5, 15]: -0.0711 | GRinf [5, 16]: -0.345 | GRinf [5, 17]: -0.111
